Laboratory results from PubChem BioAssay AID318 (DTP/NCI, 2004).
Where “and” joins values, the source holds several entries; their conditions need not be identical. Identical values can stand only once. Inconclusive results and toxic doses are left out.

System: BDF1 mice, P815 leukemia ip, survival T/C
Assay: NCI In Vivo Anticancer Drug Screen. Data for tumor model P815 Mast Cell Leukemia (Ascitic) (intraperitoneal) in B6D2F1 (BDF1) mice
Conditions: higher = longer survival
Procedure: The antitumor activity of compounds was measured in mice bearing transplantable tumors. Survival or tumor size were measured and the results are expressed as the measurement made in the treated group (T) divided by the measurement made in the vehicle treated control group (C). The tumor model used in this assay is P815 Mast Cell Leukemia (Ascitic) (intraperitoneal) in B6D2F1 (BDF1) mice

[1] = endpoint: survival time, mean or median, dose: 27.0 mg/kg/injection, schedule: Q01DX010 (ip), vehicle: saline
[2] = endpoint: survival time, mean or median, dose: 40.0 mg/kg/injection, schedule: Q01DX010 (ip), vehicle: saline
[3] = endpoint: survival time, mean or median, dose: 12.0 mg/kg/injection, schedule: Q01DX010 (ip), vehicle: saline
[4] = endpoint: survival time, mean or median, dose: 5.0 mg/kg/injection, schedule: Q01DX010 (ip), vehicle: saline
[5] = endpoint: survival time, mean or median, dose: 10.0 mg/kg/injection, schedule: Q01DX010 (ip), vehicle: saline
[6] = endpoint: survival time, mean or median, dose: 20.0 mg/kg/injection, schedule: Q01DX010 (ip), vehicle: saline
[7] = endpoint: survival time, mean or median, dose: 25.0 mg/kg/injection, schedule: Q01DX010 (ip), vehicle: saline
[8] = endpoint: survival time, mean or median, dose: 50.0 mg/kg/injection, schedule: Q01DX010 (ip), vehicle: saline
[9] = endpoint: survival time, mean or median, dose: 100.0 mg/kg/injection, schedule: Q01DX010 (ip), vehicle: saline

Compound: O=C(Nc1cccc(NC(=O)Nc2cccc(C3=NCCN3)c2)c1)Nc1cccc(C2=NCCN2)c1
- T/C [1]: 121 % of control
- T/C [2]: 117 % of control
- T/C (endpoint: survival time, mean or median, dose: 66.0 mg/kg/injection, schedule: Q01DX010 (ip), vehicle: saline): 113 % of control
- T/C (endpoint: survival time, mean or median, dose: 90.0 mg/kg/injection, schedule: Q01DX010 (ip), vehicle: saline): 86 % of control

Compound: CC(Cl)CN(Cc1cc(O)c(CN(CC(C)Cl)CC(C)Cl)cc1O)CC(C)Cl (stereo not drawn)
- T/C (endpoint: survival time, mean or median, dose: 62.5 mg/kg/injection, schedule: Q01DX015 (ip), vehicle: carboxymethylcellulose (CMC)): 114 % of control
- T/C (endpoint: survival time, mean or median, dose: 125.0 mg/kg/injection, schedule: Q01DX015 (ip), vehicle: carboxymethylcellulose (CMC)): 99 % of control
- T/C (endpoint: survival time, mean or median, dose: 250.0 mg/kg/injection, schedule: Q01DX015 (ip), vehicle: carboxymethylcellulose (CMC)): 122 % of control
- T/C (endpoint: survival time, mean or median, dose: 500.0 mg/kg/injection, schedule: Q01DX015 (ip), vehicle: carboxymethylcellulose (CMC)): 124 % of control

Compound: C[C@H](N)C(=O)N[C@@H]1[C@H]2C(=C(O)C[C@@H](O)[C@@H]2O)C(=O)O[C@@H]1C
- T/C (endpoint: survival time, mean or median, dose: 150.0 mg/kg/injection, schedule: Q01DX010 (ip), vehicle: saline): 122 % of control
- T/C (endpoint: survival time, mean or median, dose: 1200.0 mg/kg/injection, schedule: Q01DX010 (ip), vehicle: saline): 183 % of control

Compound: Nc1cc(C(=O)Nc2ccc(C3=NCCN3)cc2)cc(C(=O)Nc2ccc(C3=NCCN3)cc2)c1
- T/C (endpoint: survival time, mean or median, dose: 16.0 mg/kg/injection, schedule: Q01DX010 (ip), vehicle: saline): 116 % of control
- T/C (endpoint: survival time, mean or median, dose: 32.0 mg/kg/injection, schedule: Q01DX010 (ip), vehicle: saline): 120 % of control
- T/C (endpoint: survival time, mean or median, dose: 64.0 mg/kg/injection, schedule: Q01DX010 (ip), vehicle: saline): 150 % of control

Compound: CS(=O)(=O)OCCN(CCOS(C)(=O)=O)c1ccc(N=O)cc1
- T/C (endpoint: survival time, mean or median, dose: 1.0 mg/kg/injection, schedule: Q01DX010 (ip), vehicle: saline): 161 % of control
- T/C (endpoint: survival time, mean or median, dose: 2.0 mg/kg/injection, schedule: Q01DX010 (ip), vehicle: saline): 115 % of control
- T/C (endpoint: survival time, mean or median, dose: 4.0 mg/kg/injection, schedule: Q01DX010 (ip), vehicle: saline): 100 % of control

Compound: O=C(O)CC(NC(=O)CP(=O)(O)O)C(=O)O (stereo not drawn)
- T/C (endpoint: median survival time, dose: 62.2 mg/kg/injection, schedule: Q04DX003 (ip), vehicle: saline): 99 % of control
- T/C (endpoint: median survival time, dose: 104.0 mg/kg/injection, schedule: Q04DX003 (ip), vehicle: saline): 99 % of control
- T/C (endpoint: median survival time, dose: 173.0 mg/kg/injection, schedule: Q04DX003 (ip), vehicle: saline): 97 % of control
- T/C (endpoint: median survival time, dose: 288.0 mg/kg/injection, schedule: Q04DX003 (ip), vehicle: saline): 107 % of control
- T/C (endpoint: median survival time, dose: 480.0 mg/kg/injection, schedule: Q04DX003 (ip), vehicle: saline): 92 % of control

Compound: N=C(N)c1ccc(Nc2ccc(C(=N)N)cc2)cc1
- T/C (endpoint: survival time, mean or median, dose: 3.0 mg/kg/injection, schedule: Q01DX010 (ip), vehicle: saline): 94 % of control and 100 % of control
- T/C (endpoint: survival time, mean or median, dose: 6.0 mg/kg/injection, schedule: Q01DX010 (ip), vehicle: saline): 100 % of control
- T/C [3]: 88 % of control and 100 % of control
- T/C (endpoint: survival time, mean or median, dose: 24.0 mg/kg/injection, schedule: Q01DX010 (ip), vehicle: saline): 87 % of control

Compound: CN(C)/N=N/c1nc[nH]c1C(N)=O
- T/C (endpoint: survival time, mean or median, dose: 25.0 mg/kg/injection, schedule: Q01DX015 (ip), vehicle: carboxymethylcellulose (CMC)): 103 % of control
- T/C (endpoint: survival time, mean or median, dose: 50.0 mg/kg/injection, schedule: Q01DX015 (ip), vehicle: carboxymethylcellulose (CMC)): 110 % of control
- T/C (endpoint: survival time, mean or median, dose: 150.0 mg/kg/injection, schedule: Q01DX015 (ip), vehicle: carboxymethylcellulose (CMC)): 96 % of control

Compound: Cc1cc(N(CCCl)CCCl)ccc1N=Nc1ccccc1C(=O)O
- T/C [4]: 105 % of control and 111 % of control
- T/C [5]: 105 % of control and 111 % of control
- T/C [6]: 111 % of control
- T/C [2]: 88 % of control

Compound: N#CCSc1ncnc2nc[nH]c12
- T/C (endpoint: survival time, mean or median, dose: 7.5 mg/kg/injection, schedule: Q01DX010 (ip), vehicle: saline): 100 % of control
- T/C (endpoint: survival time, mean or median, dose: 15.0 mg/kg/injection, schedule: Q01DX010 (ip), vehicle: saline): 100 % of control and 111 % of control
- T/C (endpoint: survival time, mean or median, dose: 30.0 mg/kg/injection, schedule: Q01DX010 (ip), vehicle: saline): 100 % of control and 111 % of control
- T/C (endpoint: survival time, mean or median, dose: 60.0 mg/kg/injection, schedule: Q01DX010 (ip), vehicle: saline): 94 % of control and 122 % of control

Compound: CC1CN=C(c2ccc(NC(=O)c3cccc(C(=O)Nc4ccc(C5=NCC(C)N5)cc4)c3)cc2)N1 (stereo not drawn)
- T/C [3]: 112 % of control
- T/C (endpoint: survival time, mean or median, dose: 18.0 mg/kg/injection, schedule: Q01DX010 (ip), vehicle: saline): 104 % of control
- T/C [1]: 112 % of control

Compound: CCOC(=O)c1c[nH]c2ccc(N(CCCl)CCCl)cc12
- T/C [4]: 100 % of control
- T/C [5]: 100 % of control
- T/C [6]: 100 % of control
- T/C [2]: 105 % of control
- T/C (endpoint: survival time, mean or median, dose: 80.0 mg/kg/injection, schedule: Q01DX010 (ip), vehicle: saline): 112 % of control

Compound: O=c1[nH]c(=O)n(C2CC(O)C(CO)O2)cc1F (stereo not drawn)
- T/C [4]: 100 % of control
- T/C [5]: 100 % of control and 105 % of control
- T/C [6]: 111 % of control and 116 % of control
- T/C [2]: 111 % of control

Compound: CSc1ncnc2nc[nH]c12
- T/C [7]: 100 % of control
- T/C [8]: 100 % of control and 115 % of control
- T/C [9]: 100 % of control and 105 % of control
- T/C (endpoint: survival time, mean or median, dose: 200.0 mg/kg/injection, schedule: Q01DX010 (ip), vehicle: saline): 105 % of control and 110 % of control

Compound: O=C(O)c1[nH]c(=O)[nH]c(=O)c1F
- T/C (endpoint: survival time, mean or median, dose: 13.0 mg/kg/injection, schedule: Q01DX015 (ip), vehicle: carboxymethylcellulose (CMC)): 86 % of control

Compound: CCCCN(CCCC)CCCCCN
- T/C (endpoint: survival time, mean or median, dose: 5.0 mg/kg/injection, schedule: Q01DX015 (ip), vehicle: carboxymethylcellulose (CMC)): 111 % of control
- T/C (endpoint: survival time, mean or median, dose: 10.0 mg/kg/injection, schedule: Q01DX015 (ip), vehicle: carboxymethylcellulose (CMC)): 103 % of control
- T/C (endpoint: survival time, mean or median, dose: 20.0 mg/kg/injection, schedule: Q01DX015 (ip), vehicle: carboxymethylcellulose (CMC)): 104 % of control
- T/C (endpoint: survival time, mean or median, dose: 30.0 mg/kg/injection, schedule: Q01DX015 (ip), vehicle: carboxymethylcellulose (CMC)): 105 % of control

Compound: CS(=O)(=O)OCCC(=O)N1CCN(C(=O)CCOS(C)(=O)=O)CC1
- T/C (endpoint: survival time, mean or median, dose: 12.5 mg/kg/injection, schedule: Q01DX010 (ip), vehicle: saline): 105 % of control
- T/C [7]: 222 % of control
- T/C [8]: 211 % of control and 285 % of control
- T/C [9]: 183 % of control and 160 % of control

Compound: C[C@@H]1C[C@H]2CC[C@H](O2)[C@H](C)C(=O)O[C@@H](C)C[C@@H]2CC[C@@H](O2)[C@@H](C)C(=O)O[C@H](C)C[C@H]2CC[C@H](O2)[C@H](C)C(=O)O[C@@H](C)C[C@@H]2CC[C@@H](O2)[C@@H](C)C(=O)O1
- T/C (endpoint: survival time, mean or median, dose: 1.5 mg/kg/injection, schedule: Q01DX015 (ip), vehicle: other): 106 % of control
- T/C (endpoint: survival time, mean or median, dose: 3.0 mg/kg/injection, schedule: Q01DX015 (ip), vehicle: other): 98 % of control
- T/C (endpoint: survival time, mean or median, dose: 6.0 mg/kg/injection, schedule: Q01DX015 (ip), vehicle: other): 100 % of control
- T/C (endpoint: survival time, mean or median, dose: 12.0 mg/kg/injection, schedule: Q01DX015 (ip), vehicle: other): 100 % of control

Compound: O=C(Nc1ccc(C2=NCCN2)cc1)c1ccc(C(=O)Nc2ccc(C3=NCCN3)cc2)c(Cl)c1
- T/C (endpoint: survival time, mean or median, dose: 1.5 mg/kg/injection, schedule: Q01DX015 (ip), vehicle: carboxymethylcellulose (CMC)): 109 % of control
- T/C (endpoint: survival time, mean or median, dose: 6.0 mg/kg/injection, schedule: Q01DX015 (ip), vehicle: carboxymethylcellulose (CMC)): 182 % of control
- T/C (endpoint: survival time, mean or median, dose: 9.0 mg/kg/injection, schedule: Q01DX015 (ip), vehicle: carboxymethylcellulose (CMC)): 176 % of control
